# Calls of active or inactive are those of the source. No cut-off for these calls is given here.
# Columns and labels:
# [1] = test system: U-87 MG; experiment: Cytotoxicity against human U87 cells assessed as reduction in cell viability incubated for 24 hrs by CCK8 assay; format: functional, cell-based, U-87MG ATCC
# [2] = test system: Hs 683; experiment: Cytotoxicity against human Hs 683 cells assessed as reduction in cell viability incubated for 24 hrs by CCK8 assay; format: functional, cell-based; details: Hs 683, 24 h
# [3] = test system: GL261; experiment: Cytotoxicity against mouse GL261 cells assessed as reduction in cell viability incubated for 24 hrs by CCK8 assay; format: functional, cell-based; details: GL261, 24 h
# [4] = Binding affinity to CM5 sensor chip immobilized human ID2 assessed as dissociation constant by SPR analysis
# [5] = test system: GL261; experiment: Antimigratory activity against mouse GL261 cells assessed as reduction in wound closure at 12.5 uM measured up to 24 hrs by scratch wound healing assay (Rvb =63.3+/-0.78%); format: functional; parameters: scale not given: the % may be the effect or the level left; details: time hrs <=24
# [6] = test system: U-87 MG; experiment: Antimigratory activity against human U87 cells assessed as reduction in wound closure at 12.5 uM measured up to 24 hrs by scratch wound healing assay (Rvb =61.5+/-10.21%); format: functional, U-87MG ATCC; parameters: scale not given: the % may be the effect or the level left; details: time hrs <=24
# [7] = test system: GL261; experiment: Antimigratory activity against mouse GL261 cells assessed as inhibition of cell migration measured after 24 hrs by crystal violet staining based inverted microscopic analysis; format: functional
# [8] = test system: U-87 MG; experiment: Antimigratory activity against human U87 cells assessed as inhibition of cell migration measured after 24 hrs by crystal violet staining based inverted microscopic analysis; format: functional; details: U-87MG ATCC
# [9] = test system: GL261; experiment: Antiinvasive activity against mouse GL261 cells assessed as inhibition of cell invasion measured after 24 hrs by crystal violet staining based inverted microscopic analysis; format: functional
# [10] = test system: U-87 MG; experiment: Antiinvasive activity against human U87 cells assessed as inhibition of cell invasion measured after 24 hrs by crystal violet staining based inverted microscopic analysis; format: functional; details: U-87MG ATCC
# [11] = test system: GL261; experiment: Induction of apoptosis in mouse GL261 cells assessed as viable cells at 25 uM measured after 24 hrs by annexin V-FITC/propidium iodide staining based flow cytometry analysis (reference value: 96.1%); format: functional; details: read-out: Activity
# [12] = test system: GL261; experiment: Induction of apoptosis in mouse GL261 cells assessed as early apoptotic cells at 25 uM measured after 24 hrs by annexin V-FITC/propidium iodide staining based flow cytometry analysis (reference value: 1.67%); format: functional
# [13] = test system: GL261; experiment: Induction of apoptosis in mouse GL261 cells assessed as late apoptotic cells at 25 uM measured after 24 hrs by annexin V-FITC/propidium iodide staining based flow cytometry analysis (reference value: 1.01%); format: functional
# [14] = test system: GL261; experiment: Induction of apoptosis in mouse GL261 cells assessed as viable cells at 50 uM measured after 24 hrs by annexin V-FITC/propidium iodide staining based flow cytometry analysis (reference value: 96.1%); format: functional; details: read-out: Activity
# [15] = test system: GL261; experiment: Induction of apoptosis in mouse GL261 cells assessed as early apoptotic cells at 50 uM measured after 24 hrs by annexin V-FITC/propidium iodide staining based flow cytometry analysis (reference value: 1.61%); format: functional
# [16] = test system: GL261; experiment: Induction of apoptosis in mouse GL261 cells assessed as late apoptotic cells at 50 uM measured after 24 hrs by annexin V-FITC/propidium iodide staining based flow cytometry analysis (reference value: 1.01%); format: functional
# [17] = test system: GL261; experiment: Induction of apoptosis in mouse GL261 cells assessed as dead cells at 50 uM measured after 24 hrs by annexin V-FITC/propidium iodide staining based flow cytometry analysis (reference value: 1.22%); format: functional
# [18] = test system: U-87 MG; experiment: Induction of apoptosis in human U87 cells assessed as viable cells at 25 uM measured after 24 hrs by annexin V-FITC/propidium iodide staining based flow cytometry analysis (reference value: 89.6%); format: functional, U-87MG ATCC; details: read-out: Activity
# [19] = test system: U-87 MG; experiment: Induction of apoptosis in human U87 cells assessed as early apoptotic cells at 25 uM measured after 24 hrs by annexin V-FITC/propidium iodide staining based flow cytometry analysis (reference value: 4.35%); format: functional, U-87MG ATCC
# [20] = test system: U-87 MG; experiment: Induction of apoptosis in human U87 cells assessed as late apoptotic cells at 25 uM measured after 24 hrs by annexin V-FITC/propidium iodide staining based flow cytometry analysis (reference value: 2.56%); format: functional, U-87MG ATCC
# [21] = test system: U-87 MG; experiment: Induction of apoptosis in human U87 cells assessed as dead cells at 25 uM measured after 24 hrs by annexin V-FITC/propidium iodide staining based flow cytometry analysis (Rvb =3.52 %); format: functional, U-87MG ATCC
# [22] = test system: U-87 MG; experiment: Induction of apoptosis in human U87 cells assessed as viable cells at 50 uM measured after 24 hrs by annexin V-FITC/propidium iodide staining based flow cytometry analysis (reference value: 89.6%); format: functional, U-87MG ATCC; details: read-out: Activity
# [23] = test system: U-87 MG; experiment: Induction of apoptosis in human U87 cells assessed as early apoptotic cells at 50 uM measured after 24 hrs by annexin V-FITC/propidium iodide staining based flow cytometry analysis (reference value: 4.35%); format: functional, U-87MG ATCC
# [24] = test system: U-87 MG; experiment: Induction of apoptosis in human U87 cells assessed as late apoptotic cells at 50 uM measured after 24 hrs by annexin V-FITC/propidium iodide staining based flow cytometry analysis (reference value: 2.56%); format: functional, U-87MG ATCC
# [25] = test system: U-87 MG; experiment: Induction of apoptosis in human U87 cells assessed as dead cells at 50 uM measured after 24 hrs by annexin V-FITC/propidium iodide staining based flow cytometry analysis (Rvb =3.52 %); format: functional, U-87MG ATCC
# [26] = test system: U87; experiment: Inhibition of ID2/KDR signalling in human U87 cells assessed as decrease in ID2 protein level measured after 24 hrs by western blot analysis; format: cell-based; details: filed as antagonist
# [27] = test system: U87; experiment: Inhibition of ID2/KDR signalling in human U87 cells assessed as decrease in VEGFA protein level measured after 24 hrs by western blot analysis; format: cell-based; details: filed as antagonist
# [28] = test system: U87; experiment: Inhibition of ID2/KDR signalling in human U87 cells assessed as decrease in KDR protein level measured after 24 hrs by western blot analysis; format: cell-based; details: filed as antagonist
# [29] = test system: U87; experiment: Inhibition of ID2/KDR signalling in human U87 cells assessed as increase in PTEN expression at 12.5 to 50 uM measured after 24 hrs by western blot analysis; format: cell-based; details: filed as antagonist, dose 12.5-50 µM
# [30] = test system: U87; experiment: Inhibition of ID2/KDR signalling in human U87 cells assessed as reduction in MMP2 expression at 12.5 to 50 uM measured after 24 hrs by western blot analysis; format: cell-based; details: filed as antagonist, dose 12.5-50 µM
# [31] = test system: U87; experiment: Inhibition of ID2/KDR signalling in human U87 cells assessed as reduction in MMP9 expression at 12.5 to 50 uM measured after 24 hrs by western blot analysis; format: cell-based; details: filed as antagonist, dose 12.5-50 µM
# [32] = test system: U87; experiment: Inhibition of ID2/KDR signalling in human U87 cells assessed as reduction in ID2 mRNA expression at 12.5 to 50 uM measured after 24 hrs by qRT-PCR analysis; format: cell-based; details: filed as antagonist, dose 12.5-50 µM
# [33] = test system: U87; experiment: Inhibition of ID2/KDR signalling in human U87 cells assessed as reduction in KDR mRNA expression at 12.5 to 50 uM measured after 24 hrs by qRT-PCR analysis; format: cell-based; details: filed as antagonist, dose 12.5-50 µM
# [34] = Antitumor activity against human U87 cells xenografted in NCG mouse assessed as tumor growth inhibition at 2.5 mg/kg, ip administered every other day for 5 days relative to control; format: functional, U-87MG ATCC; parameters: scale not given: the % may be the effect or the level left; details: time 5 day
# [35] = Antitumor activity against human U87 cells xenografted in NCG mouse assessed as reduction in tumor weight at 2.5 mg/kg, ip administered every other day for 5 days and measured after 12 days relative to control; format: functional, U-87MG ATCC; parameters: scale not given: the % may be the effect or the level left; details: time 12 day
# [36] = Toxicity in NCG mouse xenografted with human U87 cells assessed as reduction in body weight at 2.5 mg/kg, ip administered every other day for 5 days and measured after 12 days; format: organism-based; details: in vivo, 288 h, time 12 day
# [37] = Toxicity in NCG mouse xenografted with human U87 cells assessed as heart damage at 2.5 mg/kg, ip administered every other day for 5 days and measured after 7 days post first dose by H and E staining based assay; format: organism-based; details: in vivo, 168 h, time 7 day
# [38] = test system: U-87MG ATCC; experiment: Antitumor activity against human U87 cells xenografted in NCG mouse assessed as reduction in CD31 marker expression in tumor at 2.5 mg/kg, ip administered every other day for 5 days and measured after 7 days post first dose by immunohistochemical analysis; format: functional, organism-based; details: time 7.0 day
# [39] = test system: U-87MG ATCC; experiment: Antitumor activity against human U87 cells xenografted in NCG mouse assessed as reduction in Ki67 expression in tumor at 2.5 mg/kg, ip administered every other day for 5 days and measured after 7 days post first dose by immunohistochemical analysis; format: functional, organism-based; details: time 7.0 day
# [40] = Toxicity in NCG mouse […] with human U87 cells assessed as liver damage at 2.5 mg/kg, ip administered every other day for 5 days and measured after 7 days post first dose by H and E staining based assay; format: organism-based; details: in vivo, 168 h, time 7 day
# [41] = Toxicity in NCG mouse […] with human U87 cells assessed as lung damage at 2.5 mg/kg, ip administered every other day for 5 days and measured after 7 days post first dose by H and E staining based assay; format: organism-based; details: in vivo, 168 h, time 7 day
# [42] = Toxicity in NCG mouse […] with human U87 cells assessed as kidney damage at 2.5 mg/kg, ip administered every other day for 5 days and measured after 7 days post first dose by H and E staining based assay; format: organism-based; details: in vivo, 168 h, time 7 day
# [43] = Aqueous solubility of compound at up to 80 uM measured after 10 mins by optical microscopic analysis; format: physicochemical; details: buffer
# [44] = test system: L02; experiment: Cytotoxicity against human L02 cells assessed as reduction in cell viability at up to 100 nM incubated for 24 hrs by CCK8 assay; format: cell-based; details: l02, 24 h
# [45] = test system: NIH3T3; experiment: Cytotoxicity against mouse 3T3 cells assessed as reduction in cell viability at up to 100 nM incubated for 24 hrs by CCK8 assay; format: cell-based; details: nih3t3, 24 h
# [46] = species on record: Homo sapiens; experiment: Binding affinity to CM5 sensor chip immobilized human ID2 assessed as association constant by SPR analysis; details: filed as antagonist
# [47] = species on record: Homo sapiens; experiment: Binding affinity to CM5 sensor chip immobilized human ID2 assessed as maximum response by SPR analysis; details: filed as antagonist
compound,measurement,setting,value
COc1ccccc1[C@H](CNC(=O)CCc1c[nH]c2ccccc12)N1CCCC1,IC50,[1],> 100 µM
same,IC50,[2],> 100 µM
same,IC50,[3],94.6 µM
COc1cccc2c1OC(c1ccc(F)cc1)N1N=C(c3ccccc3)CC21 (stereo not drawn),IC50,[1],> 100 µM
same,IC50,[2],> 100 µM
same,IC50,[3],> 100 µM
O=C(C[C@@]1(O)C(=O)N(Cc2cccc(Cl)c2)c2ccccc21)c1ccccn1,IC50,[1],27.3 µM
same,IC50,[2],34.2 µM
same,IC50,[3],38.2 µM
same,Kd,[4],0.129 µM
same,Activity,[5],13.11%
same,Activity,[6],5.59%
same,Activity,[7],Dose-Dependent Effect
same,Activity,[8],Dose-Dependent Effect
same,Activity,[9],Dose-Dependent Effect
same,Activity,[10],Dose-Dependent Effect
same,viability at 25 µM,[11],70.2%
same,Activity,[12],8.24%
same,Activity,[13],16%
same,viability at 50 µM,[14],6.58%
same,Activity,[15],13.1%
same,Activity,[16],69.3%
same,Activity,[17],11%
same,viability at 25 µM,[18],8.04%
same,Activity,[19],45.4%
same,Activity,[20],43.9%
same,Activity,[21],2.72%
same,viability at 50 µM,[22],2.61%
same,Activity,[23],27.3%
same,Activity,[24],68.8%
same,Activity,[25],1.29%
same,inhibition,[26],Dose-Dependent Effect
same,inhibition,[27],Dose-Dependent Effect
same,inhibition,[28],Dose-Dependent Effect
same,inhibition,[29],Active
same,inhibition,[30],Active
same,inhibition,[31],Active
same,inhibition,[32],Active
same,inhibition,[33],Active
same,Activity,[34],49.7%
same,Activity,[35],57.8%
same,Activity,[36],Non-Toxic
same,Activity,[37],Non-Toxic
same,Activity,[38],Active
same,Activity,[39],Active
same,Activity,[40],Non-Toxic
same,Activity,[41],Non-Toxic
same,Activity,[42],Non-Toxic
same,solubility,[43],Soluble
same,Activity,[44],Non-Toxic
same,Activity,[45],Non-Toxic
same,Ka,[46],24.8 M⁻¹ s⁻¹
same,Rmax,[47],83.6 RU
O=C(Cc1cccc2ccccc12)NNC(=O)Nc1cccc(Cl)c1,IC50,[1],> 100 µM
same,IC50,[2],> 100 µM
same,IC50,[3],> 100 µM
COc1ccc(Cn2c(SCC(=O)n3c4c(c5ccccc53)CCCC4)nc3ccccc32)cc1,IC50,[1],88.5 µM
same,IC50,[2],91.4 µM
same,IC50,[3],90.4 µM
NC(=O)C1CCN(C(=O)c2ccc(CSc3nc4cccnc4n3Cc3ccccc3)cc2)CC1,IC50,[1],60.3 µM
same,IC50,[2],62.3 µM
same,IC50,[3],56.7 µM
Cc1ccc(CNC(=O)Cn2c(CO)cnc2SCC(=O)Nc2ccc3c(c2)OCO3)cc1,IC50,[1],37.8 µM
same,IC50,[2],41.5 µM
same,IC50,[3],50.1 µM
O=C(C1=C(O)C(=O)N(CCc2c[nH]c3ccccc23)[C@@H]1c1cccc(O)c1)c1ccc(Cl)cc1,IC50,[1],54.3 µM
same,IC50,[2],60.8 µM
same,IC50,[3],57.3 µM
